Data: patent US7189720B2 (H. Lundbeck A/S, priority 1999, dated 2007)
Where two headings read alike, the source gives them in different places.

Target: T1, human Y5 receptor (Homo sapiens, UniProt Q15761)
T1 construct: expressed in transfected cells; host or cells: mouse fibroblast LM(tk-) cells, e.g. L-hY5-7 (ATCC CRL-11995)
T1 sequence (Q15761 1-445): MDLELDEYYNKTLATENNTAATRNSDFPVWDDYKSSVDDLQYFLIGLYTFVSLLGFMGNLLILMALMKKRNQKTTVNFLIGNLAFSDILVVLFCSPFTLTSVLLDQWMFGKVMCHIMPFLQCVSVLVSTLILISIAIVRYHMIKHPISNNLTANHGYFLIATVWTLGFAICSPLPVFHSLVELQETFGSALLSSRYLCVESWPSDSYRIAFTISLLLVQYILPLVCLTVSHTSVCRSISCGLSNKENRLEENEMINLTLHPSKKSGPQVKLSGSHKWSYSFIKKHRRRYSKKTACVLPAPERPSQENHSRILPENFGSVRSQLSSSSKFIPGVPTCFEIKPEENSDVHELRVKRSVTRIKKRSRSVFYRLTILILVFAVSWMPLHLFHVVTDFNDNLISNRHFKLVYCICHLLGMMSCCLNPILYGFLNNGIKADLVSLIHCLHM
Assay: Radioligand binding to membranes, cloned human Y5 receptor

[1] = Table 2, read-out: Ki (nM) hNPY-5
[2] = Table 6, read-out: Ki, nM hNPY-5
[3] = Table 5, read-out: Ki, nM hNPY-5
[4] = Table 3, read-out: Ki (nM) hNPY-5
[5] = Table 1, read-out: Ki (nM) hNPY-5

For `CCNc1nc(NCC)nc(NCC2CCC(CNS(=O)(=O)c3ccc(C(C)(C)C)cc3)CC2)n1` (stereo not shown) [Example 29, N1-[4-([4,6-di(ethylamino)-1,3,5-triazin-2-yl]aminomethyl)cyclohexyl]methyl-4-(tert-butyl)-1-benzenesulfonamide], the Ki [1] was 50 nM.
In the case of `O=S(=O)(NCCCCNc1nc2c(s1)CCSc1ccccc1-2)c1ccc(F)cc1F` [Example 138, N1-[4-(4,5-Dihydrobenzo[2,3]thiepino[4,5-d][1,3]thiazol-2-ylamino)butyl]-2,4-difluoro-1-benzenesulfonamide], the Ki [2] was 119 nM.
With `O=S(=O)(N[C@H]1CC[C@H](CNc2nc(-c3ccccn3)cs2)CC1)c1ccccc1F` [Example 84, trans-2-(4-(2-Fluorophenyl)sulfonylamino)cyclohexylmethyl-amino-4-(2-pyridyl)thiazole dihydrogen chloride] the Ki [3] was 8.4 nM.
`COCCN(C=O)[C@H]1CC[C@H](CNc2nc(-c3nc(C)sc3C)cs2)CC1` [Example 101, trans-N-[4-([4-(2,5-Dimethyl-1,3-thiazol-4-yl)-1,3-thiazol-2-yl]aminomethyl)cyclohexyl]-N-(2-methoxyethyl)formamide] showed a Ki [3] of 407 nM.
For `CN(C)S(=O)(=O)NC[C@H]1CC[C@H](Nc2nc(-c3nccs3)cs2)CC1` [Example 90, trans-N,N-dimethyl-N′-[(4-[4-(-1,3-thiazol-2-yl)-1,3-thiazol-2-yl]aminocyclohexyl)methyl]sulfamide], the Ki [3] was 17.5 nM.
`O=[N+]([O-])c1ccccc1S(=O)(=O)NCCCCCCNc1nc2c(s1)CCSc1ccccc1-2` [Example 116, N1-[6-(4,5-Dihydrobenzo[2,3]thiepino[4,5-d][1,3]thiazol-2-ylamino)hexyl]-2-nitro-1-benzenesulfonamide] gave a Ki [2] of 7.1 nM.
For `COc1ccc(C)cc1S(=O)(=O)NCCCCCNc1nc(-c2cccs2)cs1` [Example 92, N1-(5-{[4-(2-Thienyl)-1,3-thiazol-2-yl]amino}pentyl)-2-methoxy-5-methyl-1-benzenesulfonamide], the Ki [3] was 7.9 nM.
With `COc1ccc(C)cc1S(=O)(=O)N[C@H]1CC[C@H](CNc2nc(-c3ccncc3)cs2)CC1` [Example 87, trans-2-(4-(2-Methoxy-5-methylphenyl)sulfonylamino)-cyclohexylmethylamino-4-(4-pyridyl)thiazole dihydrogen chloride] the Ki [3] was 17 nM.
`CN(C)c1cccc2c(S(=O)(=O)NCCCCCNc3nc4c(s3)CCSc3ccccc3-4)cccc12` [Example 123, N1-[5-(4,5-Dihydrobenzo[2,3]thiepino[4,5-d][1,3]thiazol-2-ylamino)pentyl]-5-(dimethylamino)-1 naphthalenesulfonamide] gave a Ki [2] of 161 nM.
In the case of `COc1ccc(C)cc1S(=O)(=O)NCCCCCNc1nc(-c2nccs2)cs1` [Example 88, N1-(5-[4-(1,3-thiazol-2-yl)-1,3-thiazol-2-yl]aminopentyl)-2-methoxy-5-methyl-1-benzenesulfonamide], the Ki [3] was 13.7 nM.
In the case of `O=S(=O)(NCCCCCCNc1nc2c(s1)CCSc1ccccc1-2)c1cccc(C(F)(F)F)c1` [Example 144, N1-[6-(4,5-dihydrobenzo[2,3]thiepino[4,5-d][1,3]thiazol-2-ylamino)hexyl]-3-(trifluoromethyl)-1-benzenesulfonamide], the Ki [2] was 22.4 nM.
With `O=S(=O)(NCCCCCNc1nc(-c2ccccn2)cs1)c1ccc(F)c(F)c1` [Example 64, 2-(5-(3,4-Difluorophenyl)sulfonylamino)pentylamino-4-(2-pyridyl)thiazole hydrogen chloride] the Ki [3] was 42 nM.
Compound `O=S(=O)(N[C@H]1CC[C@H](CNc2nc(-c3cccnc3)cs2)CC1)c1ccccc1F` [Example 86, trans-2-(4-(2-Fluorophenyl)sulfonylamino)cyclohexylmethyl-amino-4-(3-pyridyl)thiazole dihydrogen chloride] has a Ki [3] of 12.3 nM.
Compound `Cc1nc(-c2csc(NC[C@H]3CC[C@H](N(C=O)C(C)C)CC3)n2)c(C)s1` [Example 102, trans-N-[4-([4-(2,5-Dimethyl-1,3-thiazol-4-yl)-1,3-thiazol-2-yl]aminomethyl)cyclohexyl]-N-isopropylformamide] has a Ki [3] of 72 nM.
`O=S(=O)(NCC1CCC(CNc2nc(NC3CC3)nc(N3CCCC3)n2)CC1)c1ccc(F)cc1` (stereo not shown) [Example 52, N1-[4-([4-(cyclopropylamino)-6-tetrahydro-1H-1-pyrrolyl-1,3,5-triazin-2-yl]aminomethyl)cyclohexyl]methyl-4-fluoro-1-benzenesulfonamide] was tested, and the Ki [4] was 101 nM.
In the case of `Cc1cccc(F)c1S(=O)(=O)NCCCCCCNc1nc2c(s1)CCSc1ccccc1-2` [Example 149, N1-[6-(4,5-Dihydrobenzo[2,3]thiepino[4,5-d][1,3]thiazol-2-ylamino)hexyl]-2-fluoro-6-methyl-1-benzenesulfonamide], the Ki [2] was 4 nM.
Compound `CCCS(=O)(=O)NCCCCCCNc1nc2c(s1)CCSc1ccccc1-2` [Example 143, N1-[6-(4,5-Dihydrobenzo[2,3]thiepino[4,5-d][1,3]thiazol-2-ylamino)hexyl]-1-propanesulfonamide] has a Ki [2] of 3.6 nM.
In the case of `CC(C)Nc1nc(NCC2CCC(CNS(=O)(=O)c3cccc4ccccc34)CC2)nc(N2CCOCC2)n1` (stereo not shown) [Example 24, N1-[4-([4-(isopropylamino)-6-morpholino-1,3,5-triazin-2-yl]aminomethyl)cyclohexyl]methyl-1-naphthalenesulfonamide], the Ki [5] was 40 nM.
With `CC(C)(C)c1ccc(S(=O)(=O)NCC2CCC(CNc3nc(N4CCCC4)nc(N4CCCC4)n3)CC2)cc1` (stereo not shown) [Example 46, N1-[(4-[(4,6-ditetrahydro-1H-1-pyrrolyl-1,3,5-triazin-2-yl)amino]methylcyclohexyl)methyl]-4-(tert-butyl)-1-benzenesulfonamide] the Ki [4] was 68 nM.
In the case of `CN(C)c1cccc2c(S(=O)(=O)NCCCCCCNc3nc4c(s3)CCSc3ccccc3-4)cccc12` [Example 115, N1-[6-(4,5-Dihydrobenzo[2,3]thiepino[4,5-d][1,3]thiazol-2-ylamino)hexyl]-5-(dimethylamino)-1-naphthalenesulfonamide], the Ki [2] was 71 nM.
For `O=S(=O)(NCCCCCNc1nc(-c2nccs2)cs1)c1ccc(F)cc1` [Example 95, N1-(5-[4-(1,3-Thiazol-2-yl)-1,3-thiazol-2-yl]aminopentyl)-4-fluoro-1-benzenesulfonamide], the Ki [3] was 179 nM.
`CC(C)Nc1nc(NCC2CCC(CNS(=O)(=O)c3cccc4ccccc34)CC2)nc(NC2CCC2)n1` (stereo not shown) [Example 7, N1-[4-([4-(cyclobutylamino)-6-(isopropylamino)-1,3,5-triazin-2-yl]aminomethyl)cyclohexyl]methyl-1-naphthalenesulfonamide] showed a Ki [5] of 22 nM.
`O=S(=O)(NCCCCCCNc1nc2c(s1)CCSc1ccccc1-2)c1ccc(-c2ccon2)s1` [Example 129, N2-[6-(4,5-Dihydrobenzo[2,3]thiepino[4,5-d][1,3]thiazol-2-ylamino)hexyl]-5-(3-isoxazolyl)-2-thiophenesulfonamide] was tested, and the Ki [2] was 29 nM.
`CCNc1nc(NCC)nc(NCC2CCC(CNS(=O)(=O)c3cc(C)ccc3OC)CC2)n1` (stereo not shown) [Example 31, N1-[4-([4,6-di(ethylamino)-1,3,5-triazin-2-yl]aminomethyl)cyclohexyl]methyl-2-methoxy-5-methyl-1-benzenesulfonamide] was tested, and the Ki [1] was 25 nM.
Compound `CCNc1nc(NCC)nc(NCC2CCC(CNS(=O)(=O)c3cccnc3)CC2)n1` (stereo not shown) [Example 34, N3-[4-([4,6-di(ethylamino)-1,3,5-triazin-2-yl]aminomethyl)cyclohexyl]methyl-3-pyridinesulfonamide] has a Ki [1] of 427 nM.
`O=[N+]([O-])c1ccccc1S(=O)(=O)NCCCCCNc1nc2c(s1)CCSc1ccccc1-2` [Example 130, N1-[5-(4,5-Dihydrobenzo[2,3]thiepino[4,5-d][1,3]thiazol-2-ylamino)pentyl]-2-nitro-1-benzenesulfonamide] gave a Ki [2] of 5.2 nM.
`COCCN(C=O)[C@H]1CC[C@H](CNc2nc3c(s2)CCSc2ccc(F)cc2-3)CC1` [Example 164, trans-N-(4-[(9-Fluoro-4,5-dihydrobenzo[2,3]thiepino-[4,5-d][1,3]thiazol-2-yl)amino]methylcyclohexyl)-N-(2-methoxyethyl)formamide] was tested, and the Ki [2] was 13 nM.
For `CC(=O)N1CCN(c2nc(NCC3CCC(CNS(=O)(=O)c4cccc5ccccc45)CC3)nc(NC(C)C)n2)CC1` (stereo not shown) [Example 27, N1-{[4-({[4-(4-acetylpiperazino)-6-(isopropylamino)-1,3,5-triazin-2-yl]amino}methyl)cyclohexyl]methyl}-1-naphthalenesulfonamide], the Ki [5] was 31 nM.
Compound `CC(C)N(C=O)[C@H]1CC[C@H](CNc2nc3c(s2)CCSc2ccccc2-3)CC1` [Example 165, trans-N-4-[(4,5-Dihydrobenzo[2,3]thiepino[4,5-d][1,3]thiazol-2-ylamino)methyl]cyclohexyl-N-isopropylformamide] has a Ki [2] of 4.8 nM.
`CCNc1nc(NCC2CCC(CNS(=O)(=O)c3cccc4ccccc34)CC2)nc(NC(C)C)n1` (stereo not shown) [Example 2, N1-[4-([4-(ethylamino)-6-(isopropylamino)-1,3,5-triazin-2-yl]aminomethyl)cyclohexyl]methyl-1-naphthalenesulfonamide] showed a Ki [5] of 7 nM.
In the case of `CCNc1nc(NCC)nc(NCC2CCC(CNS(=O)(=O)c3ccccc3C)CC2)n1` (stereo not shown) [Example 33, N1-[4-([4,6-di(ethylamino)-1,3,5-triazin-2-yl]aminomethyl)cyclohexyl]methyl-2-methyl-1-benzenesulfonamide], the Ki [1] was 22 nM.
